Test results published in US12522630B2, “MRNA cap analog and uses thereof” (HANMI FINE CHEMICAL CO., LTD., priority 2022, dated 2026).

Columns and labels:
[1] = target: T1, T7 RNA polymerase (Escherichia phage T7, UniProt P00573); test: In vitro transcription of luciferase mRNA capped by co-transcriptional capping; format: biochemical; settings: 4 mM cap analog, 37° C., 1 to 4 hours; compared with ^7mG(3′OMe)pppA(2′OMe)pG (set as 100%); FIG. 1
T1 construct: purchased New England Biolab #dy1670
Protocol: For mRNA synthesis reaction using the compound of Example 8 as a cap analog, a transcription mixture including a 100 ng/ml firefly luciferase DNA transcription template (including poly A 101), 5 mM ATP, CTP, GTP, and 1-N-methyl-pseudouridine 5′-triphosphate (me^1øTP), 4 mM compound of Example 8, 10 U/ml T7 RNA polymerase (New England Biolab #dy1670), 1 U/ml RNase inhibiting protein, 0.01 U/ml inorganic pyrophosphatase, 40 mM Tris·HCl (pH 8.0), 20 mM magnesium acetate, 1 mM spermidine, and 10 mM DTT was prepared. As a comparative example, a transcription mixture was prepared by adding the TriLink's trinucleotide cap analog ^m7G(3′Ome)pppA(2′oMe)pG, instead of the compound of Example 8, under the same conditions. Each of the prepared transcription mixtures was reacted at 37° C. for 1 to 4 hours. […] Concentration of the purified mRNA was measured by using a Nanodrop spectrophotometer of Thermo Scientific, and a total amount of mRNA was calculated by multiplying the concentration and reaction volume. Then, in order to derive a mRNA in vitro transcription (IVT) yield, the total amount of mRNA synthesized using each different cap analog was divided by the input L-DNA content to quantify the IVT yield value according to the cap analog. […] This may be calculated by [Equation 1] below. […]

[2] = test system: HEK293T cells; test: Translation of capped luciferase mRNA in HEK293T cell; format: cell-based, Human; settings: compared with mRNA capped with ^7mG(3′OMe)pppA(2′OMe)pG
Protocol: Translation activity of luciferase mRNAs respectively prepared by in vitro transcription of the compound of Example 8 or ^7mG(3′OMe)pppA(2′OMe)pG in Experimental Example 1 was evaluated in Human embryonic kidney 293T cell lines (HEK293T). HEK293T cells were incubated in DMEM supplemented with 10% FBS and 1% penicillin/streptomycin at 37° C. under an atmosphere of 5% CO2. HEK293T cells were plated in a 6-well plate at a density of 1×10^5 cells/well. […] The cells were harvested after 1, 4, 6, 12, 24, and 48 hours from the transfection and luciferase activity was measured by using a Dual-Glo® Luciferase Assay kit (Promega catalog #E2910) according to manufacturer's recommendations: after removing the medium of the transfected cells, 75 μl of phosphate-buffered saline (PBS) was added thereto. Subsequently, 75 μl of a Dual-Glo® reagent was further added thereto, followed by mixing and incubation for 10 minutes, and then firefly luciferase luminescence was measured by using a luminometer (Perkin Elmer). Then, 75 μl of a Dual-Glo® Stop&Glo® reagent was further added thereto, followed by incubation for 10 minutes, and then Renilla luciferase luminescence was measured. A ratio of firefly luciferase luminous value to a Renilla luciferase luminous value, a control was calculated, and then luciferase activity per hour relative […] (RLU) was normalized, which is shown in FIG. 2. […]

T1 sequence (P00573 whole entry): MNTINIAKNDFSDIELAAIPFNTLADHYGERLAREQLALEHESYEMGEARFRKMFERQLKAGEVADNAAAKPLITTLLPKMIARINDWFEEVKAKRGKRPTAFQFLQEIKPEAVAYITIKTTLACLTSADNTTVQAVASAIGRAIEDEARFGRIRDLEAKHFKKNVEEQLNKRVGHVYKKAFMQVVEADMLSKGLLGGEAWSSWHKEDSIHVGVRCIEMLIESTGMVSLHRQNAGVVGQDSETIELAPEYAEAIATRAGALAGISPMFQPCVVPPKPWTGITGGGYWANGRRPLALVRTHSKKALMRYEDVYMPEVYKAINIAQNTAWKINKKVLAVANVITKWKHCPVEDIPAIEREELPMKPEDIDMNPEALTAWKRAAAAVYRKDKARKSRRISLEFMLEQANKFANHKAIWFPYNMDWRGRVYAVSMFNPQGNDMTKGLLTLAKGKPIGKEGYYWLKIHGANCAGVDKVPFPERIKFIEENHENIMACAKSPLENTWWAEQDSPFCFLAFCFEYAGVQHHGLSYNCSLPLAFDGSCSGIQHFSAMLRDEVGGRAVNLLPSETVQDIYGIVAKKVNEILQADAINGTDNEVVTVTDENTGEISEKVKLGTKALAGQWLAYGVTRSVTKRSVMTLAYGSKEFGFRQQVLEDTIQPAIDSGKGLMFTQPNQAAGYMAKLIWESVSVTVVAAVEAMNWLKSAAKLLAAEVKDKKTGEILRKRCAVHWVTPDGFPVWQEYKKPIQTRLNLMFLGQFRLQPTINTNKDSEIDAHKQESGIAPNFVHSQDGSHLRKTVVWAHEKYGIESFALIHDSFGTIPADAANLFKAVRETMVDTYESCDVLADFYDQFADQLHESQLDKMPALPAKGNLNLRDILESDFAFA

**Q.** Which results are given for COC1[C@@H](OP(=O)(O)OC[C@H]2O[C@@H](n3cnc4c(=O)[nH]c(N)nc43)C(O)[C@H]2O)[C@@H](COP(=O)(O)OP(=O)(O)OP(=O)(O)OC[C@H]2O[C@@H](n3c[n+](C)c4c(=O)[nH]c(N)nc43)C(O)[C@H]2OS(C)(=O)=O)O[C@H]1n1cnc2c(N)ncnc21 (stereo partly drawn) [Example 8, ^7mG(3′OMs)pppA(2′OMe)pG]?
**A.** IVT yield of luciferase mRNA with the compound as cap analog [1]: almost same; total protein expression level (AUC of luciferase activity) of mRNA capped with the compound ([2]; 1 hour to 48 hours after transfection, FIG. 3): higher total protein expression level; luciferase activity of mRNA capped with the compound ([2]; from 6 hours to 12 hours after transfection, FIG. 2): far higher luciferase activity
